Test results from PMC6709486, “Safety, Tolerability, Pharmacokinetics, and Drug Interaction Potential of SPR741, an Intravenous Potentiator, after Single and Multiple Ascending Doses and When Combined with β-Lactam Antibiotics in Healthy Subjects” (Antimicrobial Agents and Chemotherapy, 2019).

Test: clinical
Settings: in vivo, iv
Source text: The drug-drug interaction study was a phase 1, single-center, multiarm, open-label, randomized, three-period crossover study. The objective was to evaluate the DDI potential and the PK of SPR741 coadministered with each of three partner antibiotics as well as the DDI and PK effects of three partner antibiotics administered alone and with SPR741. The study comprised a screening phase (day −28 to day −2), three treatment arms (day 1 to day 8 for each arm), and an end-of-study follow-up (day 9). Each subject participated in screening, one treatment arm, and the end-of-study follow-up. The maximum duration of participation for each subject was approximately 37 days. Subjects remained in the clinical unit from the day before dosing (day −1) to 24 h after the third and last dose period (day 8).
The DDI study consisted of three treatment arms with three dosing periods in each arm (days 1, 4, and 7). In random sequence, subjects received a single dose of study treatments with a 2-day washout period between each assigned treatment. In treatment arm 1, subjects received 400 mg of SPR741 i.v. over 1 h, 400 mg of SPR741 i.v. over 1 h plus 1.0 g of ceftazidime i.v. over 1 h, and 1.0 g of ceftazidime i.v. over 1 h. In treatment arm 2, subjects received 400 mg of SPR741 i.v. over 1 h, 400 mg of SPR741 i.v. over 1 h plus 4.5 g of piperacillin-tazobactam i.v. over 1 h, and 4.5 g of piperacillin-tazobactam i.v. over 1 h.
For both studies, maximum plasma concentration (Cmax), area under the concentration-time curve from time zero to the last measurable time point (AUC0-t), area under the concentration-time curve from time zero to infinity (AUC0-inf), time to maximum concentration (Tmax), terminal elimination rate constant (kel), terminal half-life (t1/2), terminal clearance (CL), and volume of distribution (V) were determined. PK parameters were determined using WinNonlin Phoenix, version 6.4.
For the SAD phase, blood samples were obtained predose (within 10 min), at 30 min following the start of infusion, at the end of infusion, and at 75, 90, 105, 120, and 150 min and 3, 4, 5, 6, 8, 10, 12, and 24 h following the start of infusion. For the MAD phase, blood was obtained predose (within 10 min), at 30 min following the start of infusion, at the end of infusion, and at 90 and 150 min and 3, 4, 5, 6, and 8 h following the start of infusion (day 1, first dose; day 14, last dose). Five additional blood samples were obtained at 10, 12, 24, 36, and 48 h following the start of infusion of the last dose (morning of day 14). For the DDI study, blood samples for determining plasma concentrations of SPR741 and each partner antibiotic were obtained predose (within −10 min), at 30 min, and at 1 h, 1 h 15 min, 1 h 30 min, 1 h 45 min, 2, 4, 8, 12, and 24 h postdose for each dose period. Plasma samples for drug concentration measurements were analyzed using a validated high-pressure liquid chromatography tandem mass spectrometry (HPLC-MS/MS) method. In brief, samples were spiked with a stable isotope-labeled internal standard and then extracted by protein precipitation before injection onto the HPLC-MS/MS system. Unique transitions were monitored for all test articles and internal standards. Plasma concentrations below the limit of quantitation were reported as 0.
In the SAD/MAD study, geometric means were calculated for AUC and Cmax values. Analyses using linear models were performed to assess dose proportionality (both single dose and multiple dose), time dependence, accumulation, and attainment of steady state (multiple dose). Dose proportionality was assessed using linear models for the SAD and MAD cohorts separately. […] Point estimates and 90% confidence intervals (CIs), using the residual mean square error obtained from the ANOVA, were constructed for the comparisons between treatments. The point and CI estimates were back-transformed to give estimates of the ratios (percentages) of the geometric LSMs and corresponding 90% CIs.

**Q.** Which “AUC0-inf, geometric LSM, reference treatment” value does the source give for `CC(C)(O/N=C(\C(=O)N[C@@H]1C(=O)N2C(C(=O)[O-])=C(C[n+]3ccccc3)CS[C@H]12)c1csc(N)n1)C(=O)O` [Ceftazidime, ceftazidime] here?
**A.** The value was 163,000 h·ng/ml.

**Q.** And the AUC0-t?
**A.** The AUC0-t was 162,000 ± 22,400 (13.8) ng·h/ml.

**Q.** And the “AUC0-τ, geometric LSM, reference treatment” value?
**A.** Its value is 163,000 h·ng/ml.

**Q.** And the AUC(0-inf)?
**A.** The AUC(0-inf) was 163,000 ± 22,500 (13.8) ng·h/ml.

**Q.** What about the CL of the same compound?
**A.** The CL was 6.3 ± 0.8 (12.8) liters/h.

**Q.** And the Cmax?
**A.** Its Cmax is 70,200 ± 5,790 (8.2) ng/ml.

**Q.** What about the “Cmax, geometric LSM, reference treatment” value of the same compound?
**A.** The value was 70,300 ng/ml.

**Q.** And the Tmax?
**A.** The Tmax was 1.0 ± 0 (0) h.

**Q.** And the V?
**A.** The V was 24.0 ± 3.1 (12.8) liters.

**Q.** And the kel?
**A.** Its kel is 0.26 ± 0.01 (3.1) 1/h.

**Q.** And the t1/2?
**A.** Its t1/2 is 2.7 ± 0.1 (3.1) h.

**Q.** For `C[C@]1(Cn2ccnn2)[C@H](C(=O)O)N2C(=O)C[C@H]2S1(=O)=O` [Tazobactam, tazobactam], which “AUC0-inf, geometric LSM, reference treatment” value is on record?
**A.** The value was 30,200 h·ng/ml.

**Q.** What about the AUC0-t of the same compound?
**A.** The AUC0-t was 32,000 ± 5,060 (15.8) ng·h/ml.

**Q.** And the “AUC0-τ, geometric LSM, reference treatment” value?
**A.** The value was 30,200 h·ng/ml.

**Q.** And the AUC(0-inf)?
**A.** Its AUC(0-inf) is 32,000 ± 5,060 (15.8) ng·h/ml.

**Q.** What about the CL of the same compound?
**A.** Its CL is 16.1 ± 3.0 (18.4) liters/h.

**Q.** What about the Cmax of the same compound?
**A.** Its Cmax is 18,500 ± 2,610 (14.1) ng/ml.

**Q.** What about the “Cmax, geometric LSM, reference treatment” value of the same compound?
**A.** The value was 17,600 ng/ml.

**Q.** And the Tmax?
**A.** Its Tmax is 1.0 ± 0 (1.2) h.

**Q.** And the V?
**A.** The V was 41.6 ± 6.5 (15.6) liters.

**Q.** And the kel?
**A.** Its kel is 0.40 ± 0.12 (30.8) 1/h.

**Q.** What about the t1/2 of the same compound?
**A.** The t1/2 was 1.9 ± 0.4 (22.4) h.

**Q.** Which results are given for `CCN1CCN(C(=O)N[C@@H](C(=O)N[C@@H]2C(=O)N3[C@@H]2SC(C)(C)[C@@H]3C(=O)O)c2ccccc2)C(=O)C1=O` [Piperacillin, piperacillin]?
**A.** AUC0-inf, geometric LSM, reference treatment: 228,000 h·ng/ml; AUC0-t: 240,000 ± 33,000 (13.7) ng·h/ml; AUC0-τ, geometric LSM, reference treatment: 228,000 h·ng/ml; AUC(0-inf): 240,000 ± 33,000 (13.7) ng·h/ml; CL: 19.1 ± 3.0 (15.8) liters/h; Cmax: 154,000 ± 23,500 (15.2) ng/ml; Cmax, geometric LSM, reference treatment: 145,000 ng/ml; Tmax: 1.0 ± 0 (1.2) h; V: 60.7 ± 10.6 (17.4) liters; kel: 0.32 ± 0.02 (5.6) 1/h; t1/2: 2.2 ± 0.1 (5.7) h
